# Where two headings read alike, the source gives them in different places.
# Assays:
# [1] = tested on: MRSA (QA-11.2); parameters: method as in PMID 35970069; conditions: cited from earlier work
# [2] = tested on: E. coli (ATCC 25922); conditions: cited from earlier work
# [3] = tested on: E. coli ESBL QA-11.3; parameters: method as in PMID 35970069; conditions: cited from earlier work
# [4] = tested on: VRE; conditions: cited from earlier work
# [5] = tested on: MRSA (QA-11.7); conditions: cited from earlier work
# [6] = tested on: E. faecalis RDK 057; conditions: cited from earlier work
# [7] = tested on: S. aureus (ATCC 29213); conditions: cited from earlier work
# [8] = target: T1, S. aureus topoIV (Staphylococcus aureus, UniProt P0C1U9); conditions: relaxation inhibition; cited from earlier work
# T1 construct: purchased Inspiralis (Norwich, UK)
# [9] = tested on: E. coli N43 (CGSC# 5583); conditions: AcrA knockout; cited from earlier work
# [10] = tested on: E. coli D22; conditions: lpxC mutation; cited from earlier work
# [11] = tested on: A. baumannii; parameters: method as in PMID 35970069; conditions: cited from earlier work
# [12] = tested on: MRSA(QA-12.1); parameters: method as in PMID 35970069; conditions: cited from earlier work
# [13] = target: T2, E. coli DNA gyrase (Escherichia coli, UniProt P0AES4); conditions: supercoiling inhibition; cited from earlier work
# T2 construct: purchased Inspiralis (Norwich, UK)
# T2 sequence (P0AES4 whole entry): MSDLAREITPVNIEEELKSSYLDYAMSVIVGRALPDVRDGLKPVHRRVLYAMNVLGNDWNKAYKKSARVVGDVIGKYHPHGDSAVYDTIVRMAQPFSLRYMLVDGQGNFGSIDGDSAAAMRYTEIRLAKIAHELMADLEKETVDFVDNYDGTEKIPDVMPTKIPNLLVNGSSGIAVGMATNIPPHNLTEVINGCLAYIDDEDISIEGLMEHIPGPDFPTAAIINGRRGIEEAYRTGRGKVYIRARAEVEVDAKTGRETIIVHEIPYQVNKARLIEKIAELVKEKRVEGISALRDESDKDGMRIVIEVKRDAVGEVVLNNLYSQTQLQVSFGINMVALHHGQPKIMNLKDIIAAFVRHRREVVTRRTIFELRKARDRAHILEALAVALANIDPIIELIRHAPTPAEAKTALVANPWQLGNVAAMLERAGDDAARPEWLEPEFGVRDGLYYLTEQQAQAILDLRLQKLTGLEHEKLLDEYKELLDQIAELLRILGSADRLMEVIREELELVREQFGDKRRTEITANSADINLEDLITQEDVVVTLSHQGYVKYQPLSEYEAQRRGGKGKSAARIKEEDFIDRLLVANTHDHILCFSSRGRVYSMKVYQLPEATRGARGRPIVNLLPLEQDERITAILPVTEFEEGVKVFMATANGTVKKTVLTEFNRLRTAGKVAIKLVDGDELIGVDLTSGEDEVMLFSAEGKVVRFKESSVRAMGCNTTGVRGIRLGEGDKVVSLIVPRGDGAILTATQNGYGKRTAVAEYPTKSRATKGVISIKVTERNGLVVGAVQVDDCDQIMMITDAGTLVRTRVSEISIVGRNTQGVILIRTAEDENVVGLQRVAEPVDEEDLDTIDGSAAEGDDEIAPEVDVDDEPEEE
# [14] = tested on: P. aeruginosa RDK 184; conditions: cited from earlier work
# [15] = target: T3, E. coli topoIV (Escherichia coli, UniProt P0AFI2); conditions: relaxation inhibition; cited from earlier work
# T3 construct: purchased Inspiralis (Norwich, UK)
# T3 sequence (P20083 whole entry): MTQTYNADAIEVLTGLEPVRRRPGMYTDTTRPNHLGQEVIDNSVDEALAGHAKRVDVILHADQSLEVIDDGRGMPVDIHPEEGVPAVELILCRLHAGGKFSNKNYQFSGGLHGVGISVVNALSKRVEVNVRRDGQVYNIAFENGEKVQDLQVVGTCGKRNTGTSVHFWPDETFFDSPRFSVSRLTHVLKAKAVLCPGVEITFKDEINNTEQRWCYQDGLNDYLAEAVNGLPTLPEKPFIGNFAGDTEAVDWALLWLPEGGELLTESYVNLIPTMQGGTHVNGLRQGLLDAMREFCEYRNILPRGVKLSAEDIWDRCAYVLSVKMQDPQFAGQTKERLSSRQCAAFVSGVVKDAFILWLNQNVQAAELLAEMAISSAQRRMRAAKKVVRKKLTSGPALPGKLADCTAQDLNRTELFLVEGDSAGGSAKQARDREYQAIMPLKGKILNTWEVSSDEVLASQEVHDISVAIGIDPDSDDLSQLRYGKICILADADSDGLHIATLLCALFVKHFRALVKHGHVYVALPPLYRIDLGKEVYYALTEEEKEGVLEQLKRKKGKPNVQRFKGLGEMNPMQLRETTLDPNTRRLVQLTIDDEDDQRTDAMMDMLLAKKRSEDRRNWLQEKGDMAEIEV
# T3 sequence (P0AFI2 whole entry): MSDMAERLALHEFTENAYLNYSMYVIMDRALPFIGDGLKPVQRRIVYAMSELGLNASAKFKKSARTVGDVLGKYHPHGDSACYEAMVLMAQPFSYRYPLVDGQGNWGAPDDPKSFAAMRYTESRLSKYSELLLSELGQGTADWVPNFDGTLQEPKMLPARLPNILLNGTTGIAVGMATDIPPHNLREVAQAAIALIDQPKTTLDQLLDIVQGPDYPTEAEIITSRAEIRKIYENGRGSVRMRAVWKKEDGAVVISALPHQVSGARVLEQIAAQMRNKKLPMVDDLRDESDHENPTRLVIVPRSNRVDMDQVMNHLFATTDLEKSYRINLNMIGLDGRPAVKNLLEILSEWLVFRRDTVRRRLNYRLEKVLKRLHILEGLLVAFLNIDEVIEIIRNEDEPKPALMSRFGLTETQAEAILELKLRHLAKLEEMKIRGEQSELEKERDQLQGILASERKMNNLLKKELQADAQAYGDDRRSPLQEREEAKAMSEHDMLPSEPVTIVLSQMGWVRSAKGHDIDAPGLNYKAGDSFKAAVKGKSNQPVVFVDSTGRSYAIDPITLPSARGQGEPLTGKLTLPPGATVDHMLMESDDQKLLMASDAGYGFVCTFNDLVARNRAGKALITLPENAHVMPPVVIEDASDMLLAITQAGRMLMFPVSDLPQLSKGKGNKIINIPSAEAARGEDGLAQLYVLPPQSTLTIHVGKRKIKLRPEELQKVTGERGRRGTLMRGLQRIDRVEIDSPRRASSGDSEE
# [16] = tested on: K. pneumoniae; parameters: method as in PMID 35970069; conditions: cited from earlier work
# [17] = target: T4, S. aureus DNA gyrase (Staphylococcus aureus, UniProt P20831); conditions: supercoiling inhibition; cited from earlier work
# T4 construct: purchased Inspiralis (Norwich, UK)
# T4 sequence (P20831 whole entry): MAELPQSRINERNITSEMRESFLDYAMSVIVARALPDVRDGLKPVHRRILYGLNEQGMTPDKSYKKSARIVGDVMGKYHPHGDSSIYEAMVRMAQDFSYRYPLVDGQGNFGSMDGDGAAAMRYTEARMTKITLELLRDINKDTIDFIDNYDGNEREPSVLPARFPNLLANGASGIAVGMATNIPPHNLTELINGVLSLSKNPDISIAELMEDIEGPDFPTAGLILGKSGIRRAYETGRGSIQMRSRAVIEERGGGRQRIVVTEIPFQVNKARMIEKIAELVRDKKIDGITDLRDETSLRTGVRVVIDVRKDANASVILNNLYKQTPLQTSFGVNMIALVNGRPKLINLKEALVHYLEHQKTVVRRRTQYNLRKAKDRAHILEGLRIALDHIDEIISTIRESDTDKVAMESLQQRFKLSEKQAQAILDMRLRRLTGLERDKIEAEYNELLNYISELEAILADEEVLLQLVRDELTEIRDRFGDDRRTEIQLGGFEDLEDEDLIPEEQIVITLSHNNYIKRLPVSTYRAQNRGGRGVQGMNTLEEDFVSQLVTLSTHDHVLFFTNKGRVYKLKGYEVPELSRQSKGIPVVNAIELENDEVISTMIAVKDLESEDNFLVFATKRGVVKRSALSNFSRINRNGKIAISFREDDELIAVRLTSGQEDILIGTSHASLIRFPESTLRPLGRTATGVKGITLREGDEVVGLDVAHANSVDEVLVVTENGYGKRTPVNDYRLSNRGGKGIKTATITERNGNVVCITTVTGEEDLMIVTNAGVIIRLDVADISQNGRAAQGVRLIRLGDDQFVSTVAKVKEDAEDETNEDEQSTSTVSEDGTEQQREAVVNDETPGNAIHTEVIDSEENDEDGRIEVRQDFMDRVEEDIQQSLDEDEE
# T4 sequence (P0A0K8 whole entry partner): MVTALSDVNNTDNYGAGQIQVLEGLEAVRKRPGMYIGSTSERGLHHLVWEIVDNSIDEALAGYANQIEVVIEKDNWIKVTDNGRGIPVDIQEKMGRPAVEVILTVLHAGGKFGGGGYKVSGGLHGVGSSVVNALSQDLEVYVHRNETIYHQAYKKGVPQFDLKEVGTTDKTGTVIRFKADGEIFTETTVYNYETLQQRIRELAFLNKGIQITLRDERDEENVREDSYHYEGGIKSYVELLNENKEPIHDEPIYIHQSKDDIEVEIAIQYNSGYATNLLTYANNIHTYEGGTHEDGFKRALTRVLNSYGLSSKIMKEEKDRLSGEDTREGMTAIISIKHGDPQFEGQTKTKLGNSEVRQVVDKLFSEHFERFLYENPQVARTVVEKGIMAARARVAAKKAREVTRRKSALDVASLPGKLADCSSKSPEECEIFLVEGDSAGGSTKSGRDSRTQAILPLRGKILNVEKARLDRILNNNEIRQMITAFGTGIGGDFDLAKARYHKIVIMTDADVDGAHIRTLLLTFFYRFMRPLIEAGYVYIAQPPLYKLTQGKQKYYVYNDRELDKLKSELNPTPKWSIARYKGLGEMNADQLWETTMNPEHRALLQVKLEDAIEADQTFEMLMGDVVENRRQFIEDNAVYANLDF
# [18] = target: T5, human topoisomerase IIα (Homo sapiens, UniProt P11388); conditions: residual activity at 100 µM compound; cited from earlier work
# T5 construct: purchased Inspiralis (Norwich, UK)
# [19] = tested on: MRSA (QA-11.7); assay: MIC, broth microdilution; format: cell-based, S. aureus; conditions: Staphylococcus aureus
# Protocol: (§1) For the determination of minimum inhibitory concentrations (MIC), the broth microdilution method was used in 96-well plate format, according to the guidelines of the Clinical and Laboratory Standards Institute and the recommendations of the European Committee on Antimicrobial Susceptibility Testing (EUCAST). The dilutions of the bacterial suspension of the specific bacterial strain, corresponding to the 0.5 McFarland turbidity standard, were prepared with […] Mueller–Hinton broth with TES (Thermo Fisher Scientific) to obtain an end inoculum of 10^5 CFU/mL. The compounds were dissolved in DMSO and mixed with the inoculum. […] The MIC was determined as the lowest concentration of antibiotic that prevented visible bacterial growth. Tetracycline was used as a positive control on each test plate.
# [20] = tested on: MRSA (QA-11.2); assay: MIC, broth microdilution; format: cell-based, S. aureus; conditions: Staphylococcus aureus
# Protocol: as §1
# [21] = tested on: MRSA(QA-12.1); assay: MIC, broth microdilution; format: cell-based, S. aureus; conditions: Staphylococcus aureus
# Protocol: as §1
# [22] = target: T5, human topoisomerase IIα; assay: human topoisomerase II alpha relaxation high-throughput assay (selectivity); format: biochemical; conditions: residual activity at 100 µM compound; mean ± SD, two independent experiments; read-out: Human TopoIIα (% RA at 100 µM)
# Protocol: For selectivity determination, a human topoisomerase II alpha relaxation high-throughput assay was used. The assay kits and black streptavidin-coated 96-well microtiter plates are available from Inspiralis (Norwich, UK). Two independent measurements were performed with an inhibitory concentration of 100 µM. Raw data were calculated as the mean ± SD percentage of the residual enzyme activity.
# [23] = Metabolic activity assessment (cytotoxicity), CellTiter 96 Aqueous One; format: cell-based; conditions: human, HepG2 cells (ATCC HB-8065); 72 h treatment; means of three independent measurements ± SD
# Protocol: HUVEC (ATCC® CRL-1730™) and HepG2 (ATCC® HB-8065™) cell lines were cultured in Dulbecco’s Modified Eagle Medium (DMEM; Sigma-Aldrich, St. Louis, MO, USA) supplemented with 10% heat-deactivated FBS (Gibco, Grand Island, NE, USA), 2 mM L-glutamine, 100 U/mL penicillin, 100 μg/mL streptomycin (all from Sigma-Aldrich, St. Louis, MO, USA) in a humidified chamber at 37 °C and 5% CO2. The experiments were carried out on passages 4–7 for both cell lines. The tested compounds were dissolved in DMSO and further diluted in culture medium to a desired final concentration. The cells were then seeded into 96-well plates at 5 × 10^4 cells/mL (100 μL/well) or 8 × 10^4 cells/mL (100 μL/well) for HUVEC and HepG2, respectively. The cells were then incubated for 24 h to allow attachment onto the wells. The cells were treated with 1 μM and 50 μM of each compound of interest, or the corresponding vehicle as control. […] Their metabolic activity was assessed after 72 h treatment using a CellTiter 96 Aqueous One Solution Cell Proliferation Assay (Promega, Madison, WI, USA), in accordance with the manufacturer’s instructions. The absorbance was measured at 492 nm on an automated microplate reader, Tecan Spark (Tecan Group Ltd., Männedorf, CH, Switzerland). Data are presented as the percentage of metabolic activity of control cells stimulated with vehicle, or as an IC50 value (mean ± SD) from three independent experiments, each conducted in triplicate (for screening) or duplicate (for IC50 determination). IC50 values were calculated using a non-linear regression model and with Graph Pad Prism 9 software.
# [24] = tested on: K. pneumoniae; assay: MIC, broth microdilution; format: cell-based; conditions: Klebsiella pneumoniae
# Protocol: as §1
# [25] = tested on: E. faecalis RDK 057; assay: MIC, broth microdilution; format: cell-based; conditions: Enterococcus faecalis, RDK057
# Protocol: as §1
# [26] = tested on: P. aeruginosa RDK 184; assay: MIC, broth microdilution; format: cell-based; conditions: Pseudomonas aeruginosa
# Protocol: as §1
# [27] = tested on: E. coli N43 (CGSC# 5583); assay: MIC, broth microdilution; format: cell-based; conditions: Escherichia coli
# Protocol: as §1
# [28] = tested on: VRE; assay: MIC, broth microdilution; format: cell-based; conditions: Enterococcus
# Protocol: as §1
# [29] = tested on: E. coli ESBL QA-11.3; assay: MIC, broth microdilution; format: cell-based; conditions: Escherichia coli, ESBLQA11.3
# Protocol: as §1
# [30] = tested on: S. aureus (ATCC 29213); assay: MIC, broth microdilution; format: cell-based; conditions: Staphylococcus aureus, ATCC29213
# Protocol: as §1
# [31] = tested on: A. baumannii; assay: MIC, broth microdilution; format: cell-based; conditions: Acinetobacter baumannii
# Protocol: as §1
# [32] = tested on: E. coli D22; assay: MIC, broth microdilution; format: cell-based; conditions: Escherichia coli, D22
# Protocol: as §1
# [33] = tested on: E. coli (ATCC 25922); assay: MIC, broth microdilution; format: cell-based; conditions: Escherichia coli, ATCC25922
# Protocol: as §1
# [34] = target: T2, E. coli DNA gyrase; assay: DNA gyrase supercoiling inhibition assay (high-throughput plate assay); format: biochemical
# Protocol: (§2) To determine the IC50 values of the compounds for S. aureus and E. coli, a DNA gyrase supercoiling high-throughput plate assay and a topoIV relaxation high-throughput plate assay were performed. Assay kits and black streptavidin-coated 96-well microtiter plates are available from Inspiralis (Norwich, UK). For pre-screening, an inhibitor concentration of 100 μM was used. […] A nonlinear regression-based fit of the inhibition curves was used, with the log [inhibitor] versus slope of the reaction variables (four parameters) and a symmetric equation. […] To determine IC50 values, two independent repetitions were performed and the average was calculated.
# [35] = target: T3, E. coli topoIV; assay: topoIV relaxation inhibition assay (high-throughput plate assay); format: biochemical
# Protocol: as §2
# [36] = target: T1, S. aureus topoIV; assay: biochemical; conditions: relaxation inhibition; mean of two independent measurements ± SD
# Protocol: as §2
# [37] = target: T4, S. aureus DNA gyrase; assay: biochemical; conditions: supercoiling inhibition; mean of two independent measurements ± SD
# Protocol: as §2
compound,measurement,setting,value
COc1ccc2nccc(OC[C@H]3CC[C@H](NCc4ccc(Br)cc4)CO3)c2n1 [Compound 3],MIC MRSA (QA-11.2),[1],0.25 µg/mL
same,MIC E. coli (ATCC 25922),[2],128 µg/mL
same,MIC E. coli ESBL QA-11.3,[3],>128 µg/mL
same,MIC VRE,[4],1 µg/mL
same,MIC MRSA (QA-11.7),[5],0.5 µg/mL
same,MIC E. faecalis RDK 057,[6],2 µg/mL
same,MIC S. aureus (ATCC 29213),[7],0.125 µg/mL
same,IC50,[8],> 100000 nM
same,MIC E. coli N43 (CGSC# 5583),[9],8 µg/mL
same,MIC E. coli D22,[10],8 µg/mL
same,MIC A. baumannii,[11],>128 µg/mL
same,MIC MRSA(QA-12.1),[12],0.125 µg/mL
same,IC50,[13],7740 ± 2310 nM
same,MIC P. aeruginosa RDK 184,[14],128 µg/mL
same,IC50,[15],131 ± 40 nM
same,MIC K. pneumoniae,[16],128 µg/mL
same,IC50,[17],294 ± 100 nM
same,Human TopoIIα (% RA at 100 µM),[18],105 ± 1%
"COc1ccc2nccc(CCN3CCC(NCc4ccc(Br)c(C(F)(F)F)c4)CC3)c2n1 [Compound 12, N-(4-Bromo-3-(trifluoromethyl)benzyl)-1-(2-(6-methoxy-1,5-naphthyridin-4-yl)ethyl)piperidin-4-amine]",MIC,[19]; read-out: MIC (μM) MRSA (QA-11.7),0.161 µM
same,MIC,"[19]; strain resistant to cefoxitin, ciprofloxacin, clindamycin, erythromycin, tetracycline, thiamulin, trimethoprim, read-out: MIC MRSA (QA-11.7)",0.063 µg/mL
same,MIC,[20]; read-out: MIC (μM) MRSA (QA-11.2),0.161 µM
same,MIC,[20]; read-out: MIC MRSA (QA-11.2),0.063 µg/mL
same,MIC,"[21]; Table S3, read-out: MIC (μM) MRSA(QA-12.1)",0.082 µM
same,MIC,"[21]; strain resistant to cefoxitin, gentamicin, kanamycin, rifampicin, streptomycin, sulfamethoxazole, tetracycline, read-out: MIC MRSA(QA-12.1)",0.032 µg/mL
same,remaining activity at 100 µM,[22],102%
same,IC50 at 72 h,[23],12000 ± 1860 nM
same,MIC,"[24]; Table S3, read-out: MIC (μM) K. pneumoniae",41 µM
same,MIC,[24]; read-out: MIC K. pneumoniae,16 µg/mL
same,MIC,"[25]; Table S3, read-out: MIC (μM) E. faecalis DRK 057",1.28 µM
same,MIC,[25]; read-out: MIC E. faecalis RDK 057,0.5 µg/mL
same,MIC,"[26]; RDK184, 20 h, Table S3, read-out: MIC (μM) P. aeruginosa RDK 184",> 328 µM
same,MIC,"[26]; RDK184, read-out: MIC P. aeruginosa RDK 184",> 128 µg/mL
same,MIC,[27]; read-out: MIC (μM) E. coli N43,0.161 µM
same,MIC,[27]; read-out: MIC E. coli N43 (CGSC# 5583),0.063 µg/mL
same,MIC,"[28]; Table S3, read-out: MIC (μM) VRE",0.64 µM
same,MIC,[28]; read-out: MIC VRE,0.25 µg/mL
same,MIC,"[29]; Table S3, read-out: MIC (μM) E. coli ESBL QA:11.3",10.2 µM
same,MIC,[29]; read-out: MIC E. coli ESBL QA-11.3,4 µg/mL
same,MIC,"[30]; Table S3, read-out: MIC (μM) S. aureus (ATCC 29213)",0.082 µM
same,MIC,[30]; read-out: MIC S. aureus (ATCC 29213),0.032 µg/mL
same,MIC,"[31]; Table S3, read-out: MIC (μM) A. baumannii",5.12 µM
same,MIC,[31]; read-out: MIC A. baumannii,2 µg/mL
same,MIC,"[32]; Table S3, lpxC mutation, read-out: MIC (μM) E. coli D22",0.64 µM
same,MIC,"[32]; lpxC mutation that increases membrane permeability, read-out: MIC E. coli D22",0.25 µg/mL
same,MIC,"[33]; Table S3, read-out: MIC (μM) E. coli (ATCC 25922)",10.2 µM
same,MIC,[33]; read-out: MIC E. coli (ATCC 25922),4 µg/mL
same,IC50,[34],84 ± 20 nM
same,IC50,[35],23 ± 6 nM
same,IC50,[36],345 ± 25 nM
same,IC50,[37],62 nM

# — paper PMC10215804, “Exploring Alternative Pathways to Target Bacterial Type II Topoisomerases Using NBTI Antibacterials: Beyond Halogen-Bonding Interactions” (Antibiotics, 2023)
